For this test, the target named is T1, GST-YTHDC1 (345-509) protein (Homo sapiens, UniProt Q96MU7).
T1 construct: GST-YTHDC1 (345-509) protein
Nature of the test: Fluorescence polarization-based in vitro enzyme-level test against YTHDC1. It counts as binding. As to conditions: read-out: IC50 (Inhibitory Activity against YTHDC1). Background: In fluorescence polarisation assays a small probe gives low polarisation when free and higher when bound to something large.

[1] abbreviates: 30 nM GST-YTHDC1 (345-509), FAM-labeled m6A-modified single-stranded oligonucleotide, 18° C., 4 hours.

Molecules are shown by their SMILES. Where two headings read alike, the source gives them in different places.

Broadly, the IC50 is the midpoint of a concentration-inhibition curve. Turning to `CN(CCO)c1cc(NC(=O)c2cc(C(=O)c3ccccc3C(F)(F)F)c[nH]2)ccc1-c1cnco1` [Compound 99], the IC50 under setting [1] came out at 258 nM.

In the case of `O=C(Nc1ccc(-c2cnco2)cc1)c1cc(C(=O)c2ccccc2N2CCOCC2)c[nH]1` [Compound 138], under setting [1], the IC50 was determined as 20 nM.

Take `O=C(Nc1ccc(-c2cncs2)cc1)c1cc2c(-c3ccccc3OC(F)(F)F)nccc2[nH]1` [Compound 44]: the IC50 under setting [1] came to 138 nM.

In the case of `CC1(C)CN(c2ccccc2C(=O)c2c[nH]c(C(=O)Nc3ccc(-c4cnco4)cc3)c2)CCO1` [Compound 150], under setting [1], the IC50 is 84 nM.

For the molecule `O=C(Nc1ccc(OC(F)(F)F)cc1)c1cc(C(=O)c2ccccc2C(F)(F)F)c[nH]1` [Compound 17], the IC50 under setting [1] turned out to be 42 nM.

As to `CN(C)c1ncc(-c2ccc(NC(=O)c3cc4c(-c5ccccc5S(C)(=O)=O)nccc4[nH]3)cc2)o1` [Compound 71], under setting [1], the IC50 was greater than 50000 nM.

For the molecule `O=C(Nc1ccc(-c2cncs2)cc1)c1cc2c(-c3ccccc3OC(F)(F)F)c(F)ccc2[nH]1` [Compound 59], the IC50 under setting [1] is greater than 50000 nM.

Turning to `O=C(Nc1ccc(F)cc1)c1cc(C(=O)c2ccccc2C(F)(F)F)c[nH]1` [Compound 15], under setting [1], the IC50 worked out at 105 nM.

With `O=C(Nc1ccc(-c2cncs2)cc1)c1cc2c(-c3ccccc3N3CCOCC3)nccc2[nH]1` [Compound 56], the IC50 under setting [1] came to 928 nM.

Consider `O=C(Nc1ccc(-c2ccncc2)cc1)c1cc(C(=O)c2ccccc2C(F)(F)F)c[nH]1` [Compound 24], for which, under setting [1], the IC50 came to 12 nM.

Take `O=C(Nc1ccc(-c2ccoc2)cc1)c1cc(C(=O)c2ccccc2C(F)(F)F)c[nH]1` [Compound 25]: the IC50 under setting [1] was 36 nM.

As for `N#Cc1ccccc1-c1nccc2[nH]c(C(=O)Nc3ccc(-c4cncs4)cc3)cc12` [Compound 43], the IC50 under setting [1] stood at 3900 nM.

In the case of `O=C(Nc1ccc(-c2cnc(N3CCN(S(=O)(=O)Cc4ccccc4)CC3)o2)cc1)c1cc(C(=O)C2C=CC=CC2C(F)(F)F)c[nH]1` (stereo not shown) [Compound 89], the IC50 under setting [1] was greater than 50000 nM.

For `O=C(Nc1ccc(C(F)(F)F)cc1[N+](=O)[O-])c1cc(C(=O)c2ccccc2C(F)(F)F)c[nH]1` [Compound 112], under setting [1], the IC50 was no less than 50000 nM.

`CN1C(=O)Cc2cc(-c3ccc(NC(=O)C4=CC(C(=O)c5ccccc5C(F)(F)F)CN4)cc3)ccc21` (stereo not shown) [Compound 107]: the IC50 under setting [1] was found to be 22 nM.

Turning to `CS(=O)(=O)c1ccccc1-c1nccc2[nH]c(C(=O)Nc3ccc(-c4cnco4)cc3)cc12` [Compound 62], the IC50 under setting [1] was 280 nM.

Consider `CS(=O)(=O)Nc1ccccc1-c1nccc2[nH]c(C(=O)Nc3ccc(-c4cncs4)cc3)cc12` [Compound 52], for which the IC50 under setting [1] came to 660 nM.

For the molecule `CC(C)(C)OC(=O)Nc1ccc(-c2ccc(NC(=O)c3cc(C(=O)c4ccccc4C(F)(F)F)c[nH]3)cc2)cc1` [Compound 116], under setting [1], the IC50 is no less than 50000 nM.

In the case of `O=C(Nc1ccc(-c2cnco2)c(F)c1)c1cc(C(=O)c2ccccc2C(F)(F)F)c[nH]1` [Compound 93], the IC50 under setting [1] turned out to be 8.92 nM.

For the molecule `O=C(Nc1ccccc1)c1cc(C(=O)c2ccccc2C(F)(F)F)c[nH]1` [Compound 12], under setting [1], the IC50 stood at 120 nM.

In the case of `O=C(Nc1ccc(-c2cnco2)cc1)c1cc(C(=O)c2ccccc2N2CCSCC2)c[nH]1` [Compound 118], the IC50 under setting [1] turned out to be 12 nM.

Turning to `O=C(Nc1cccnc1)c1cc(C(=O)c2ccccc2F)c[nH]1` [Compound 7], the IC50 under setting [1] was greater than 50000 nM.

In the case of `Cc1ncsc1-c1ccc(NC(=O)c2cc(C(=O)c3ccccc3C(F)(F)F)c[nH]2)cc1` [Compound 33], under setting [1], the IC50 stood at 12 nM.

With `O=C(Nc1ccc(-c2cnc(N3CCCC3)s2)cc1)c1cc(C(=O)c2ccccc2C(F)(F)F)c[nH]1` [Compound 36], under setting [1], the IC50 was 13 nM.

Take `CN(C)c1cc(NC(=O)c2cc(C(=O)c3ccccc3C(F)(F)F)c[nH]2)ccc1-c1cnco1` [Compound 97]: the IC50 under setting [1] was found to be 50.9 nM.

For `O=C(Nc1ccc(-c2ccc(N3CCCC3)cc2)cc1)c1cc(C(=O)c2ccccc2C(F)(F)F)c[nH]1` [Compound 106], the IC50 under setting [1] turned out to be 1770 nM.

In the case of `O=C(Nc1ccc(-c2cncs2)cc1)c1cc2c(-c3c[nH]nc3C(F)(F)F)nccc2[nH]1` [Compound 54], under setting [1], the IC50 is greater than 50000 nM.

On to `CCc1ccccc1C(=O)c1c[nH]c(C(=O)Nc2cccnc2)c1` [Compound 11], for which, under setting [1], the IC50 came to 1570 nM.

In the case of `O=C(c1ccccc1)c1c[nH]c(C(=O)Nc2cccnc2)c1` [Compound 6], the IC50 under setting [1] was greater than 50000 nM.

For the molecule `CSc1ccccc1-c1nccc2[nH]c(C(=O)Nc3ccc(-c4cncs4)cc3)cc12` [Compound 65], the IC50 under setting [1] was 11200 nM.

In the case of `CC(C)(C)OC(=O)n1cc(-c2ccc(NC(=O)c3cc(C(=O)c4ccccc4C(F)(F)F)c[nH]3)cc2)c2ccccc21` [Compound 129], under setting [1], the IC50 was 31200 nM.

Consider `CS(=O)(=O)c1ccc(NC(=O)c2cc(C(=O)c3ccccc3C(F)(F)F)c[nH]2)cc1` [Compound 100], for which the IC50 under setting [1] was 162 nM.

As to `O=C(Nc1ccc(-c2cnc(N3CCOCC3)s2)cc1)c1cc(C(=O)c2ccccc2C(F)(F)F)c[nH]1` [Compound 38], the IC50 under setting [1] was found to be 17 nM.

On to `O=C(Nc1ccc(-c2cnco2)cc1)c1cc(C(=O)c2ccccc2C2=CCCC2)c[nH]1` [Compound 142], for which the IC50 under setting [1] stood at 25 nM.

On to `O=C(Nc1ccc(-c2cncs2)cc1)c1cc2c(ncn2-c2ccccc2C(F)(F)F)[nH]1` [Compound 42], for which, under setting [1], the IC50 was found to be 180 nM.

For `N#Cc1ccc(-c2ccc(NC(=O)c3cc(C(=O)c4ccccc4C(F)(F)F)c[nH]3)cc2)s1` [Compound 31], under setting [1], the IC50 was determined as 15 nM.

For the molecule `CC(C)(C)OC(=O)N1CCN2c3ccc(NC(=O)c4cc(C(=O)c5ccccc5C(F)(F)F)c[nH]4)cc3OCC2C1` (stereo not shown) [Compound 82], the IC50 under setting [1] worked out at 125 nM.

Take `O=C(Nc1ccc(-c2cncs2)cc1)c1cc2c(-c3ccccc3OC(F)F)nccc2[nH]1` [Compound 63]: under setting [1], the IC50 was 394 nM.

Consider `O=C(Nc1ccc(-c2cnco2)cc1)c1cc(C(=O)c2ccccc2N2CCCCC2)c[nH]1` [Compound 132], for which the IC50 under setting [1] was determined as 14 nM.

`O=C(Nc1ccc(-c2cnco2)cc1)c1cc(C(=O)c2ccccc2N2CCCCCCC2)c[nH]1` [Compound 141]: the IC50 under setting [1] amounted to 189 nM.

In the case of `O=C(Nc1ccc(-c2cnco2)cc1)c1cc(C(=O)c2ccccc2N2CCC(c3ccccc3)C2)c[nH]1` (stereo not shown) [Compound 151], the IC50 under setting [1] worked out at 1560 nM.

In the case of `C[Si]1(C)CCN(c2ccccc2C(=O)c2c[nH]c(C(=O)Nc3ccc(-c4cnco4)cc3)c2)CC1` [Compound 122], the IC50 was 83 nM.

Regarding `O=C(Nc1ccc(-c2cnco2)cc1)c1cc(C(=O)c2ccccc2N2CC3(CCC3)C2)c[nH]1` [Compound 144], the IC50 under setting [1] worked out at 48 nM.

As for `O=C(Nc1ccc(-c2cncs2)cc1)c1cc2c(-c3ccc(C(F)(F)F)cc3C(F)(F)F)nccc2[nH]1` [Compound 48], the IC50 under setting [1] is greater than 50000 nM.

`O=C(Nc1cccnc1)c1cc(C(=O)c2ccccc2Br)c[nH]1` [Compound 5]: the IC50 under setting [1] worked out at 1780 nM.

With `COC(=O)c1cc(C(F)(F)F)ccc1NC(=O)c1cc(C(=O)c2ccccc2C(F)(F)F)c[nH]1` [Compound 117], the IC50 under setting [1] was no less than 50000 nM.

For `C[C@H]1CN(c2ccccc2C(=O)c2c[nH]c(C(=O)Nc3ccc(-c4cnco4)cc3)c2)CCO1` [Compound 148], under setting [1], the half-inhibitory concentration (IC50) turned out to be 66 nM.

Turning to `O=C(Nc1ccc(-c2cnc(N3CCCCC3)s2)cc1)c1cc(C(=O)c2ccccc2C(F)(F)F)c[nH]1` [Compound 37], under setting [1], the IC50 was determined as 335 nM.

Consider `CCOC(=O)c1ccc(NC(=O)c2cc(C(=O)c3ccccc3C(F)(F)F)c[nH]2)cc1` [Compound 20], for which the IC50 under setting [1] is 23 nM.

Values taken from patent US20260265222A1, “1H-PYRROLE-2-AMIDE DERIVATIVE, PHARMACEUTICAL COMPOSITION AND METHOD FOR TREATING AND/OR PREVENTING YTHDC1-RELATED DISEASES” (priority 2023, published 2026).
